Source: US20110312956A1, “ARYLINDENOPYRIMIDINES WITH REDUCED hERG CHANNEL BINDING” (priority 2010, published 2011)
Read-outs that look alike come from different tables or passages of the source.

Key:
[1] = biological target: T1, hERG (Homo sapiens, UniProt Q12809); test: hERG channel binding assay ([3H]astemizole displacement, HEK293 membranes); conditions: probe [3H]astemizole, at 10 μM, read-out: hERG binding (percent inhibition of [3H]astemizole binding)
T1 construct: expressed in transfected cells; host or cells: HEK293 cells, stably transfected; membranes used
T1 sequence (Q12809 whole entry): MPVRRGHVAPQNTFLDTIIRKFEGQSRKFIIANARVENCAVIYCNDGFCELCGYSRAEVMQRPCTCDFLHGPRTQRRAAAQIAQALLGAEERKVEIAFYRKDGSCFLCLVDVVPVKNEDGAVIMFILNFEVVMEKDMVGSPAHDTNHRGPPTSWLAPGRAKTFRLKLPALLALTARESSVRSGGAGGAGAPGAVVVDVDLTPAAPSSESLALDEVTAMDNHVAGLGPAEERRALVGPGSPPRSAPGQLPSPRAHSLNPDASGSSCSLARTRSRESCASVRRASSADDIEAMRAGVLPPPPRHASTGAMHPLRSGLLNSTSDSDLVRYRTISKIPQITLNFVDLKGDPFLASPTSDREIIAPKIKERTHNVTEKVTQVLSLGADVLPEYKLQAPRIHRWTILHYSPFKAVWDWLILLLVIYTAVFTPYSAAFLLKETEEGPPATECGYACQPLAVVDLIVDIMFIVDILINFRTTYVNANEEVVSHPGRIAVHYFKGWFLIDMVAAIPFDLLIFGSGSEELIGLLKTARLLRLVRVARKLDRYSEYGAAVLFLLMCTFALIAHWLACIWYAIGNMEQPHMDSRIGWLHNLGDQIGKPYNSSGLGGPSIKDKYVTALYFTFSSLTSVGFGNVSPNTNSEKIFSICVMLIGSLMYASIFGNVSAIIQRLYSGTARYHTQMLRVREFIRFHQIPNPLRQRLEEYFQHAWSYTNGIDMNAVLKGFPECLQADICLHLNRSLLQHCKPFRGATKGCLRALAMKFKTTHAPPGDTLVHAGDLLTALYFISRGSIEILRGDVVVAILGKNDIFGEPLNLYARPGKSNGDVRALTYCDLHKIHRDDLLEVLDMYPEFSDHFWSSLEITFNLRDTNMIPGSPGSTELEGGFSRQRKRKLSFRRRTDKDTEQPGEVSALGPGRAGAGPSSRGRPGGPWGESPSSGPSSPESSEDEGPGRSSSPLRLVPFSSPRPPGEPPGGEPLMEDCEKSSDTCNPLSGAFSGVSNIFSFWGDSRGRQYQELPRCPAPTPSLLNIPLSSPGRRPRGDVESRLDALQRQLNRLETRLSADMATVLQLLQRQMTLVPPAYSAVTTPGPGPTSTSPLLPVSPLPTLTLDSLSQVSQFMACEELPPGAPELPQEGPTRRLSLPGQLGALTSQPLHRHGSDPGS
Experimental: (§1) A hERG binding assay is a primary screening method used to evaluate potential activity of a compound against the hERG potassium channel. The affinity of a compound for the hERG channel is measured in vitro by examining displacement of tritiated-[^3H]astemizole, a high affinity hERG channel ligand. In this assay, membranes from HEK293 cells stably transfected with the human hERG channel cDNA are incubated with a range of concentrations of each test compound, vehicle (10% DMSO), or a positive control and [^3H]astemizole.
After a 1-hr incubation, the membranes are harvested onto GF/B filters, the filters dried and the radioactivity is measured. For each test compound, percent inhibition of [^3H]astemizole binding is calculated relative to control binding and IC50 values determined by linear regression. Each assay includes a positive control (i.e., Cisapride) that is tested in parallel with test compounds. At present, there is no gold standard preclinical test available to predict QT prolongation in humans. Therefore to assess potential cardiotoxicity, cardiovascular effects are evaluated preclinically in several different tests including the hERG channel binding assay.
hERG Channel Binding Assay
In the hERG channel binding assay, the ability of test compounds to displace ^3H-astemizole (a high affinity hERG channel ligand) is measured.
as §1, with “[^3H]astemizole. After a 1-hr incubation, the membranes are harvested onto GF/B filters, the filters dried and the radioactivity is measured.” for “[^3H]astemizole.”
For each test compound, percent inhibition of [^3H]astemizole binding is calculated relative to control binding and IC50 values determined by linear regression. Each assay includes a positive control (i.e., Cisapride) that is tested in parallel with test compounds.

[2] = biological target: T2, human A2a adenosine receptor (Homo sapiens, UniProt P29274); test: Ligand binding assay for adenosine A2a receptor ([3H]CGS21680, HEK293 plasma membrane)
T2 construct: purchased PerkinElmer RB-HA2a; host or cells: HEK293 cell plasma membranes
T2 sequence (P29274 whole entry): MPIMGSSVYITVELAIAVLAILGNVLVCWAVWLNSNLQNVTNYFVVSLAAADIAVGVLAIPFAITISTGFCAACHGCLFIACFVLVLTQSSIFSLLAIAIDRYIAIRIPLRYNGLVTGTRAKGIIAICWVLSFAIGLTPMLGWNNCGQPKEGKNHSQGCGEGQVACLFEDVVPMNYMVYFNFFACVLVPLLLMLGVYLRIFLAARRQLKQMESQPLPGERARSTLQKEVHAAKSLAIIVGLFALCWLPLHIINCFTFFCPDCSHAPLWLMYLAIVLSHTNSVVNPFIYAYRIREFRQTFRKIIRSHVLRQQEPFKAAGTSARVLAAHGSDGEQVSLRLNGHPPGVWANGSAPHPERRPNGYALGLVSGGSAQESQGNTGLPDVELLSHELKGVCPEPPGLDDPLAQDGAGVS

[3] = radioligand [3H]CGS21680, read-out: Ki A2a binding

Row | SMILES | inhibition at 1 h, 10 µM [1] [%] | Ki [2, 3] [nM] | Ki [2] [nM]
1 | Nc1nc(-c2ccccc2)c2c(n1)-c1cc(CN3CCCC3)ccc1C2=O [Compound 1] | 1.4 | 6.69 | –
2 | Nc1nc(-c2ccccc2)c2c(n1)-c1cc(CNCc3ccccn3)ccc1C2=O [Compound 2] | 34.5 | – | 10.2
3 | Nc1nc(-c2ccccc2)c2c(n1)-c1cc(CN3CCC(=O)CC3)ccc1C2=O [Compound 3] | 13.8 | 9.4 | –
4 | Nc1nc(-c2ccccc2)c2c(n1)-c1cc(CN3CCC(O)C3)ccc1C2=O (stereo not drawn) [Compound 4] | 27.8 | 7.9 | –
5 | Nc1nc(-c2ccccc2)c2c(n1)-c1cc(CN3CCC(O)CC3)ccc1C2=O [Compound 5] | 26.2 | 5.8 | –
6 | Nc1nc(-c2ccccc2)c2c(n1)-c1cc(CN3CCOCC3)ccc1C2=O [Compound 6] | -12.5 | 5.39 | –
